Values of other authors as cited in patent US10308663B2, “Inhibitors of PTP4A3 for the treatment of cancer” (University of Virginia Patent Foundation, priority 2015, dated 2019).

System: YOP(H?)
Conditions: DiFMUP as a substrate; reported by Hoeger et al.; cited from earlier work

In the case of `Nc1c[nH]c(=O)c2cc(-c3ccccc3)sc12` [Thienopyridone (5), 7-amino-2-phenylthieno[3,2-c]pyridin-4(5H)-one], the IC50 is given as 61 µM.
